# Test results published in ChEMBL document CHEMBL6071160, “Identification of a novel 10-hydroxyevodiamine prodrug as a potent topoisomerase inhibitor with improved aqueous solubility for treatment of hepatocellular carcinoma” (Eur J Med Chem, 2024).
# How the values were obtained:
# Huh-7 [1] = assay: Induction of apoptosis in human Huh-7 cells assessed as loss of mitochondrial membrane potential by measuring JC-1 stained cells at 80 nM measured after 24 hrs by JC-1 staining based flow cytometry (reference value: 2.27%); format: functional
# Huh-7 [2] = assay: Induction of cell cycle arrest in human Huh-7 cells assessed as accumulation of cells at S phase 80 nM measured after 24 hrs by flow cytometric assay (reference value: 23.33%); format: functional
# Huh-7 [3] = assay: In vivo antitumor activity against human Huh-7 cells subcutaneously injected into BALB/C nude mouse assessed as tumor growth inhibition at 10 mg/kg, ip administered once daily measured after 14 days; format: functional; settings: Huh-7, 336 h, time 14 day, read-out: TGI
# SK-HEP1 [4] = assay: Induction of cell cycle arrest in human SK-HEP1 cells assessed as accumulation of cells at G2 phase 80 nM measured after 24 hrs by flow cytometric assay (reference value: 22.41%); format: functional
# Huh-7 [5] = assay: Induction of apoptosis in human Huh-7 cells assessed as early apoptotic cells at 80 nM measured after 24 hrs by Annexin-V-FITC/PI analysis (reference value: 1.04%); format: functional
# SK-HEP1 [6] = assay: Induction of cell cycle arrest in human SK-HEP1 cells assessed as accumulation of cells at S phase 80 nM measured after 24 hrs by flow cytometric assay (reference value: 30.04%); format: functional
# SK-HEP1 [7] = assay: Induction of apoptosis in human SK-HEP1 cells assessed as viable cells at 80 nM measured after 24 hrs by Annexin-V-FITC/PI analysis (reference value: 97.20%); format: functional; settings: read-out: Activity
# [8] = Aqueous solubility of the compound […] measured after 72 hrs in shaking by HPLC analysis; format: physicochemical
# Huh-7 [9] = assay: Induction of apoptosis in human Huh-7 cells assessed as late apoptotic cells at 80 nM measured after 24 hrs by Annexin-V-FITC/PI analysis (reference value: 1.23%); format: functional
# SK-HEP1 [10] = assay: Induction of apoptosis in human SK-HEP1 cells assessed as ROS generation by measuring DCFH2-DA stained cells at 80 nM measured after 24 hrs […] (reference value: 0.14%); format: functional
# Huh-7 [11] = assay: Induction of cell cycle arrest in human Huh-7 cells assessed as accumulation of cells at G1 phase 80 nM measured after 24 hrs by flow cytometric assay (reference value: 63.01%); format: functional
# Huh-7 [12] = assay: Antiproliferative activity against human Huh-7 cells assessed as inhibition of cell proliferation incubated for 72 hrs by MTT assay; format: functional, cell-based; settings: Huh-7, 72 h
# Huh-7 [13] = assay: Induction of apoptosis in human Huh-7 cells assessed as viable cells at 80 nM measured after 24 hrs by Annexin-V-FITC/PI analysis (reference value: 97.46%); format: functional; settings: read-out: Activity
# Huh-7 [14] = assay: Induction of apoptosis in human Huh-7 cells assessed as necrotic cells at 80 nM measured after 24 hrs by Annexin-V-FITC/PI analysis (reference value: 0.27%); format: functional
# SK-HEP1 [15] = assay: Induction of apoptosis in human SK-HEP1 cells assessed as early apoptotic cells at 80 nM measured after 24 hrs by Annexin-V-FITC/PI analysis (reference value: 1.45%); format: functional
# Huh-7 [16] = assay: Induction of cell cycle arrest in human Huh-7 cells assessed as accumulation of cells at G2 phase 80 nM measured after 24 hrs by flow cytometric assay (reference value: 13.66%); format: functional
# SK-HEP1 [17] = assay: Induction of apoptosis in human SK-HEP1 cells assessed as late apoptotic cells at 80 nM measured after 24 hrs by Annexin-V-FITC/PI analysis (reference value: 0.64%); format: functional
# SK-HEP1 [18] = assay: Induction of apoptosis in human SK-HEP1 cells assessed as necrotic cells at 80 nM measured after 24 hrs by Annexin-V-FITC/PI analysis (reference value: 0.70%); format: functional
# Huh-7 [19] = assay: Induction of apoptosis in human Huh-7 cells assessed as ROS generation by measuring DCFH2-DA stained cells at 80 nM measured after 24 hrs […] (reference value: 0.45%); format: functional
# SK-HEP1 [20] = assay: Induction of cell cycle arrest in human SK-HEP1 cells assessed as accumulation of cells at G1 phase 80 nM measured after 24 hrs by flow cytometric assay (reference value: 47.55%); format: functional
# SK-HEP1 [21] = assay: Induction of apoptosis in human SK-HEP1 cells assessed as loss of mitochondrial membrane potential by measuring JC-1 stained cells at 80 nM measured after 24 hrs by JC-1 staining based flow cytometry (reference value: 0.49%); format: functional
compound,measurement,setting,value
CC(=O)Oc1ccc2[nH]c3c(c2c1)CCN1C(=O)c2cc(F)cc(F)c2N(c2cccc(F)c2)C31 (stereo unspecified),Activity,Huh-7 [1],12.03%
same,Activity,Huh-7 [2],11.77%
same,inhibition in vivo at 10 mg/kg,Huh-7 [3],40%
same,Activity,SK-HEP1 [4],64.96%
same,Activity,Huh-7 [5],6.38%
same,Activity,SK-HEP1 [6],23.31%
same,viability at 0.08 µM,SK-HEP1 [7],68.1%
same,solubility thermodynamic at 72 h,[8],2.4 µg/mL
same,Activity,Huh-7 [9],10.32%
same,Activity,SK-HEP1 [10],57.06%
same,Activity,Huh-7 [11],18.15%
same,IC50,Huh-7 [12],0.04 µM
same,viability at 0.08 µM,Huh-7 [13],82.5%
same,Activity,Huh-7 [14],0.83%
same,Activity,SK-HEP1 [15],21.32%
same,Activity,Huh-7 [16],70.08%
same,Activity,SK-HEP1 [17],9.72%
same,Activity,SK-HEP1 [18],0.85%
same,Activity,Huh-7 [19],17.42%
same,Activity,SK-HEP1 [20],11.73%
same,Activity,SK-HEP1 [21],12.96%
